ChEMBL document CHEMBL4390688, “Accelerating the discovery of DGAT1 inhibitors through the application of parallel medicinal chemistry (PMC)” (Bioorg Med Chem Lett, 2019)

Experiments:
[1] = molecular target: Voltage-gated inwardly rectifying potassium channel KCNH2 (Homo sapiens, UniProt Q12809); experiment: Inhibition of human ERG
[2] = molecular target: T1, Diacylglycerol O-acyltransferase 1 (Homo sapiens, UniProt O75907)
T1 sequence (O75907 whole entry): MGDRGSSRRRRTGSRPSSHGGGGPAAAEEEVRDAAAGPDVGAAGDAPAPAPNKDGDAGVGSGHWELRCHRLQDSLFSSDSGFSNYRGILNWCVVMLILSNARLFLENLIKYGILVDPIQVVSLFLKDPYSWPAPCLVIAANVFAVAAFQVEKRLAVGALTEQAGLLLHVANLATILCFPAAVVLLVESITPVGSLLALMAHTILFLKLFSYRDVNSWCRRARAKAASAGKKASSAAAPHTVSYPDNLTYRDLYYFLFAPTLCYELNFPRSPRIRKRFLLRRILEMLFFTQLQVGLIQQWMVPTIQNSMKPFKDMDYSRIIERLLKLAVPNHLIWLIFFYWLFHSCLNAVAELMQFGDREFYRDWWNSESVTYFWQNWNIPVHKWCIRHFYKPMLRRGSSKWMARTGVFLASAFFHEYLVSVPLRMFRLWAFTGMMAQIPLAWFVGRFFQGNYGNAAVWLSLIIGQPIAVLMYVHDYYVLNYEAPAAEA
Description: Inhibition of human DGAT1

[3] = molecular target: T2, Sterol O-acyltransferase 1 (Homo sapiens, UniProt P35610)
T2 sequence (P35610 whole entry): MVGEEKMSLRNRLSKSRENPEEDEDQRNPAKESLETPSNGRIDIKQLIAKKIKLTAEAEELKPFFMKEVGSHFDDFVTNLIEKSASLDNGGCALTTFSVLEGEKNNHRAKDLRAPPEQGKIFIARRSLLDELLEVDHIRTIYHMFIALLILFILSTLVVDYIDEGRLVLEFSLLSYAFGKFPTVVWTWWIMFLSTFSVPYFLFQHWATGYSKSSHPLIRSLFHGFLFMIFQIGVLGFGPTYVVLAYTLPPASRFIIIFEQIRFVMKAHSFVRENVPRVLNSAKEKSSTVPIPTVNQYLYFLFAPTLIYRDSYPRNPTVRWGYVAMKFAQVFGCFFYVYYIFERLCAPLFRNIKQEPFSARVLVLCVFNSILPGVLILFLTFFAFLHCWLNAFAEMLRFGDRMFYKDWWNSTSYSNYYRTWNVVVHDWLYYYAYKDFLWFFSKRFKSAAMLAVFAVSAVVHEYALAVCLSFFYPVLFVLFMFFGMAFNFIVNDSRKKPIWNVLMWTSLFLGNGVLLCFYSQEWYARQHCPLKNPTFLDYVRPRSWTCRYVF
Description: Inhibition of human ACAT1

Mus musculus = experiment: Reduction in lipid excursion in mouse at 10 mg/kg, po QD measured at 18 hrs post dose by lipid tolerance test relative to control; format: functional; design: scale not given: the % may be the effect or the level left
[4] = molecular target: T3, Diacylglycerol O-acyltransferase 1 (Mus musculus, UniProt Q9Z2A7)
T3 sequence (Q9Z2A7 whole entry): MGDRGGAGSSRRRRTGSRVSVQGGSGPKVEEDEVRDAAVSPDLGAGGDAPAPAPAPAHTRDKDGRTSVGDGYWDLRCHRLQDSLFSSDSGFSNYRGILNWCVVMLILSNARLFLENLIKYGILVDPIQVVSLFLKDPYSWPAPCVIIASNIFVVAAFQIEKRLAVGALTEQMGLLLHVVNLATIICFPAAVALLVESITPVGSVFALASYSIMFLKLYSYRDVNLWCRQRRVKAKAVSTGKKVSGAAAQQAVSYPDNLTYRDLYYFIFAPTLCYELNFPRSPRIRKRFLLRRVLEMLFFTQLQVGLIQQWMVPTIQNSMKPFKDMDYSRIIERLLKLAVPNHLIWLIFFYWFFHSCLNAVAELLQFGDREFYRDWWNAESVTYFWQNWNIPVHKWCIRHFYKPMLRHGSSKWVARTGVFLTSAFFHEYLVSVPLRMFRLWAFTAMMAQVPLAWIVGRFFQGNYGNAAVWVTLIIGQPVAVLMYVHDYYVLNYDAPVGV
Description: Inhibition of mouse DGAT1

[5] = Distribution coefficient, log D of compound; format: physicochemical; conditions: octanol/water
Adenosine receptor A2a = Adenosine receptor A2a (Homo sapiens, UniProt P29274); experiment: Activity against human A2AR assessed as inhibition of cAMP accumulation by cAMP functional assay
Adenosine receptor A2a, sequence (P29274 whole entry): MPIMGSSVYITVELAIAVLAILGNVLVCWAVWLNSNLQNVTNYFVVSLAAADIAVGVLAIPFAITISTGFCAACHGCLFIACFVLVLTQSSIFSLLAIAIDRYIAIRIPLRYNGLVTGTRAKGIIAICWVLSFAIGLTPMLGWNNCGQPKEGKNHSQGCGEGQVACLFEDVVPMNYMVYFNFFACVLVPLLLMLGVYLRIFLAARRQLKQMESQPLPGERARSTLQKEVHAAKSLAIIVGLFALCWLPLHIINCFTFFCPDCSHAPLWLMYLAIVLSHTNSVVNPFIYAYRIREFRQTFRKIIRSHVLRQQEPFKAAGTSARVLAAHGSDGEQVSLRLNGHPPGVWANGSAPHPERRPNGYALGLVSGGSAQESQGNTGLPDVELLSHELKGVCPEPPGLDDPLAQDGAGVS

Voltage-gated inwardly rectifying potassium channel KCNH2, sequence (Q12809 whole entry): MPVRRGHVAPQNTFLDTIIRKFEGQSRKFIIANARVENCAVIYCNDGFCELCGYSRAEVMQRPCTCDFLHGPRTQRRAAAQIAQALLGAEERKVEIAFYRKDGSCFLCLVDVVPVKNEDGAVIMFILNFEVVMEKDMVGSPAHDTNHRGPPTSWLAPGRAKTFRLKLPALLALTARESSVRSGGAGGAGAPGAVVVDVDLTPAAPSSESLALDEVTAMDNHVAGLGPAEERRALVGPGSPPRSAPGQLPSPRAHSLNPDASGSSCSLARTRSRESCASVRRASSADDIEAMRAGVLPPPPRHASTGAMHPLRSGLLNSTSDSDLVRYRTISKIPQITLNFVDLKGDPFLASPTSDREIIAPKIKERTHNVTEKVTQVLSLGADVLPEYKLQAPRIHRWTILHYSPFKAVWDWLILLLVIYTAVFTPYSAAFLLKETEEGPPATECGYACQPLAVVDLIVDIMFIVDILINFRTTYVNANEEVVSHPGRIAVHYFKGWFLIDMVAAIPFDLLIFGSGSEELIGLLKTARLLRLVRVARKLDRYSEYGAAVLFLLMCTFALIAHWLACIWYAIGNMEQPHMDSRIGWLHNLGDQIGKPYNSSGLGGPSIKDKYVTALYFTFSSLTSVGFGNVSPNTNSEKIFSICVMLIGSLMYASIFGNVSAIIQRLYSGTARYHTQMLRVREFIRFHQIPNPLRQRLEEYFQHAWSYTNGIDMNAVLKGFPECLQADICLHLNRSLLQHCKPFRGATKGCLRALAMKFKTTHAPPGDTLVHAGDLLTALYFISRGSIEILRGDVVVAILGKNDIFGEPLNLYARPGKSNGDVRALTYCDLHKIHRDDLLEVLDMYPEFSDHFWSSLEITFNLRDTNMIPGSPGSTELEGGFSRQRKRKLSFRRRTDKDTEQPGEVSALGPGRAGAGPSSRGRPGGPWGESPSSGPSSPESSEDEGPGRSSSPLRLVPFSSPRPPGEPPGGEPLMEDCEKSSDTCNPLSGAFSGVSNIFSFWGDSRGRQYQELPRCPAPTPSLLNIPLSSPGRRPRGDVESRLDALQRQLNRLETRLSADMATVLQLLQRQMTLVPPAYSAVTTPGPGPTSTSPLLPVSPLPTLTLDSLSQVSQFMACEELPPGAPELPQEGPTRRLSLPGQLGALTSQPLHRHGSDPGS

Row | SMILES | Ki [1] [nM] | IC50 [2] [nM] | IC50 [3] [nM] | Activity (Mus musculus) [%] | IC50 [4] [nM] | logD [5] | Ki (Adenosine receptor A2a) [nM]
1 | O=C(O)C1CC1COc1ccc(-c2ccc(-c3nc4cc(Cl)ccc4[nH]3)cn2)cn1 (racemic) | 19000 | 3.6 | > 2000 | 91 | 30 | 1.19 | 
2 | FC(F)(F)c1ccc2[nH]c(-c3ccc(-c4ccc(N5CCOCC5)nc4)cc3)nc2c1 | 13000 | 65 | 1320 |  |  |  | 
3 | O=C(O)C1(COc2ccc(-c3ccc(-c4nc5cc(Cl)ccc5[nH]4)cn3)cn2)CCC1 | 20000 | 1.7 | 1720 | 89 | 5 | 1.24 | 
4 | O=C(O)C1CCCCC1Nc1ccc(-c2ccc(-c3nc4cc(Cl)ccc4[nH]3)cn2)cn1 (racemic) | 3560 | 4.2 | > 10000 | 0 | 21 | 1.51 | 
5 | O=C(O)C1CCC2(CCN(c3ccc(-c4nc5cc(C(F)(F)F)ccc5[nH]4)cn3)CC2)OC1 (racemic) |  |  | > 10000 |  |  |  | > 10000
6 | O=C(O)C1CC(Nc2ccc(-c3ccc(-c4nc5cc(Cl)ccc5[nH]4)cn3)cn2)C1 (racemic) | > 60000 | 22 | > 2000 |  | 247 | 1.29 | 
7 | O=C(O)C[C@H]1CC[C@H](c2ccc(-c3ccc(-c4nc5cc(C(F)(F)F)ccc5[nH]4)cc3)cc2)CC1 |  |  |  |  | 1.8 | 2.31 | 
8 | CN1CCN(c2ccc(-c3ccc(-c4nc5cc(C(F)(F)F)ccc5[nH]4)cc3)cn2)CC1 | 426 | 70 | 2720 |  |  |  | 
9 | O=C(O)C[C@H]1CC[C@H](OC2CCN(c3ccc(-c4nc5cc(Cl)cnc5[nH]4)cn3)CC2)CC1 |  |  | > 10000 |  | 271 |  | 
10 | O=C(O)[C@H]1CC[C@@H](OC2CCN(c3ccc(-c4nc5cc(F)ccc5[nH]4)cn3)CC2)CC1 |  |  | > 10000 |  |  |  | > 10000
11 | O=C(O)C1CC(Oc2ccc(-c3ccc(-c4nc5cc(Cl)ccc5[nH]4)cn3)cn2)C1 (racemic) | 20200 | 3.5 | > 2000 | 54 | 24 | 1.16 | 
12 | N#Cc1ccc2[nH]c(-c3ccc(N4CCC(O[C@H]5CC[C@H](CC(=O)O)CC5)CC4)nc3)nc2c1 | 3000 |  | > 10000 |  | 528 |  | 
13 | CC1(C(=O)O)CCCN(c2ccc(-c3ccc(-c4nc5cc(Cl)ccc5[nH]4)cn3)cn2)C1 (racemic) | 1980 | 4.5 | > 2000 | 63 | 36 | 1.43 | 
14 | CC1(C)CN(c2ccc(-c3ccc(-c4nc5cc(Cl)ccc5[nH]4)cn3)cn2)CCC1CC(=O)O (racemic) | 1740 | 4.5 | > 2000 | 66 | 33 | 1.56 | 
15 | O=C(O)C1CCC(Nc2ccc(-c3ccc(-c4nc5cc(Cl)ccc5[nH]4)cn3)cn2)CC1 (racemic) | 3750 | 5.4 | > 2000 | 70 | 48 | 1.37 | 
16 | O=C(O)C[C@H]1CC[C@H](c2ccc(-c3ccc(-c4nc5cc(Cl)ccc5[nH]4)cc3)cc2)CC1 |  |  |  |  |  | 2.08 | 
17 | O=C(O)C1(COc2ccc(-c3ccc(-c4nc5cc(Cl)ccc5[nH]4)cn3)cn2)COC1 | 6540 | 5.3 | > 10000 | 87 | 36 | 1.16 | 
18 | CN1CCN(c2ccc(-c3ccc(-c4nc5cc(C(F)(F)F)ccc5[nH]4)cc3)cc2)CC1 | 820 | 66 | 1350 |  |  |  | 
19 | O=C(O)CC1CCN(c2ccc(-c3ccc(-c4nc5cc(Cl)ccc5[nH]4)cn3)cn2)CC1 | 5220 | 10.2 | > 2000 | 62 | 108 | 1.48 | 

Row | SMILES | Ki [1] [nM] | IC50 [2] [nM] | IC50 [3] [nM] | Activity (Mus musculus) [%] | IC50 [4] [nM] | logD [5] | Ki (Adenosine receptor A2a) [nM]
20 | O=C(O)C[C@H]1CC[C@@H](Oc2ccc(-c3ccc(-c4nc5cc(Cl)ccc5[nH]4)cn3)cn2)CC1 | 3000 |  |  |  | 1.7 |  | 
21 | FC(F)(F)c1ccc2[nH]c(-c3ccc(-c4cccnc4)cc3)nc2c1 | 1430 | 127 |  |  |  |  | 
22 | O=C(O)C[C@H]1CC[C@@H](Oc2ccc(-c3ccc(-c4nc5c(F)cc(F)cc5[nH]4)cn3)cn2)CC1 | 3800 |  |  |  | 2.3 |  | 
23 | COc1ccc2[nH]c(-c3ccc(N4CCC(O[C@H]5CC[C@H](CC(=O)O)CC5)CC4)nc3)nc2n1 | 20500 |  | > 10000 |  | 78 |  | 
24 | N#Cc1ccc(-c2ccc(-c3nc4cc(C(F)(F)F)ccc4[nH]3)cc2)cc1 | 616 | 98 | 1400 |  |  |  | 
25 | Oc1ccc(-c2ccc(-c3nc4cc(C(F)(F)F)ccc4[nH]3)cc2)cc1 | 1640 | 451 |  |  |  |  | 
26 | O=C(O)C1(CNc2ccc(-c3ccc(-c4nc5cc(Cl)ccc5[nH]4)cn3)cn2)CC1 | 12100 | 2.9 | > 10000 | 0 | 20 | 1.33 | 
27 | O=C(O)C[C@H]1CC[C@H](OC2CCN(c3ccc(-c4nc5cc(C(F)(F)F)cnc5[nH]4)cn3)CC2)CC1 | 12000 | 23.6 | > 10000 |  | 125 |  | 
28 | O=C(O)C[C@H]1CC[C@@H](Oc2ccc(-c3ccc(-c4nc5cc(C(F)(F)F)ccc5[nH]4)cn3)cn2)CC1 | 4100 |  |  |  | 1.5 |  | 
29 | O=C(O)C[C@H]1CC[C@@H](Oc2ccc(-c3ccc(-c4nc5cc(F)c(F)cc5[nH]4)cn3)cn2)CC1 | 19000 | 1.7 | > 2000 |  | 2.6 |  | 
30 | FC(F)(F)c1ccc2[nH]c(-c3ccc(-c4ccccc4)cc3)nc2c1 | 2310 | 1330 |  |  |  |  | 
31 | CC(C)(COc1ccc(-c2ccc(-c3nc4cc(Cl)ccc4[nH]3)cn2)cn1)C(=O)O | 8140 | 0.7 | 971 |  | 1.4 | 1.44 | 
32 | O=C(O)[C@H]1CC[C@H](Oc2ccc(-c3ccc(-c4nc5cc(Cl)ccc5[nH]4)cn3)cn2)CC1 | 3520 | 2.6 | 1970 | 83 | 6.3 | 1.39 | 
33 | O=C(O)C1(COc2ccc(-c3ccc(-c4nc5cc(Cl)ccc5[nH]4)cn3)cn2)CC1 | 10800 | 3.1 | 1650 | 50 | 11 | 1.35 | 
34 | O=C(O)C[C@H]1CC[C@@H](Oc2ccc(-c3ccc(-c4nc5cc(Cl)cnc5[nH]4)cn3)cn2)CC1 | 8600 | 3.2 | 1630 |  | 5.9 |  | 
35 | O=C(O)[C@H]1CC[C@@H](Oc2ccc(-c3ccc(-c4nc5cc(Cl)ccc5[nH]4)cn3)cn2)CC1 | 5390 | 1.5 | > 2000 | 144 | 2.8 |  | 
36 | N#Cc1ccc(-c2ccc(-c3nc4cc(C(F)(F)F)ccc4[nH]3)cc2)cn1 | > 60000 | 38 | > 10000 |  |  |  | 
37 | Cc1ccc2[nH]c(-c3ccc(N4CCC(O[C@H]5CC[C@H](CC(=O)O)CC5)CC4)nc3)nc2n1 |  |  |  |  | 1910 |  | 
38 | O=C(O)c1ccc(CNc2ccc(-c3ccc(-c4nc5cc(Cl)ccc5[nH]4)cn3)cn2)cc1 | 11900 | 9.6 | > 10000 |  | 84 | 1.3 | 
